Reference: ChEMBL document CHEMBL2010719, “Tyrosine modified analogues of the α4β7 integrin inhibitor biotin-R₈ERY prepared via Click Chemistry: synthesis and biological evaluation” (Bioorg Med Chem, 2012)
pIC50: −log10 of the molar value. Residues, ends and D or L forms follow the SMILES beside them. *: point of attachment. X6 = CC(=O)OC[C@@H]1O[C@H](n2cc(C*)nn2)[C@@H](OC(C)=O)[C@H](OC(C)=O)[C@@H]1OC(C)=O; X3 = CC(=O)N[C@H]1[C@H](OC(C)=O)[C@H](OC(C)=O)[C@H](COC(C)=O)O[C@@H]1n1cc(C*)nn1; X1 = CC(=O)OC[C@@H]1OC(OC(C)=O)[C@@H](n2cc(C*)nn2)[C@H](OC(C)=O)[C@@H]1OC(C)=O; X9 = CC(=O)N[C@@H]1[C@H](OCCCn2cc(C*)nn2)O[C@@H](CO)[C@@H](O)[C@H]1O; X4 = CC(=O)N[C@H]1[C@H](O)[C@H](O)[C@H](CO)O[C@@H]1n1cc(C*)nn1; X5 = O=C(N[C@@H](Cn1cc(C*)nn1)C(=O)O)OCC1c2ccccc2-c2ccccc21; X2 = OC[C@@H]1O[C@H](n2cc(C*)nn2)[C@@H](O)[C@H](O)[C@@H]1O; Biotin = O=C1N[C@H]2[C@H](CS[C@H]2CCCCC(=O)*)N1; X8 = O=P(O)(O)CCn1cc(C*)nn1; X7 = O=C(O)Cn1cc(C*)nn1; Propargyl = C#CC*

Key:
Format in all cases: cell-based
[1] = target: T1, Integrin alpha-4/beta-7 (Mus musculus) (UniProt Q00651+P26011); assay: Inhibition of integrin alpha4 beta7 receptor in mouse TK1 cells assessed as inhibition of Mn2+-activated cell adhesion to mouse MAdCAM-1-Fc at 100 uM after 1 hr using methylene blue staining relative to biotin-r9YDRREY
[2] = target: T1, Integrin alpha-4/beta-7 (Mus musculus); assay: Inhibition of integrin alpha4 beta7 receptor in mouse TK1 cells assessed as inhibition of Mn2+-activated cell adhesion to mouse MAdCAM-1-Fc at 50 uM after 1 hr by methylene blue staining analysis relative to biotin-r9YDRREY
[3] = target: T2, Integrin alpha-4/beta-7 (Mus musculus, UniProt P26011+Q00651); assay: Inhibition of integrin alpha4 beta7 receptor in mouse TK1 cells assessed as inhibition of Mn2+-activated cell adhesion to mouse MAdCAM-1-Fc after 1 hr using methylene blue staining
T2 sequence (Q00651 whole entry): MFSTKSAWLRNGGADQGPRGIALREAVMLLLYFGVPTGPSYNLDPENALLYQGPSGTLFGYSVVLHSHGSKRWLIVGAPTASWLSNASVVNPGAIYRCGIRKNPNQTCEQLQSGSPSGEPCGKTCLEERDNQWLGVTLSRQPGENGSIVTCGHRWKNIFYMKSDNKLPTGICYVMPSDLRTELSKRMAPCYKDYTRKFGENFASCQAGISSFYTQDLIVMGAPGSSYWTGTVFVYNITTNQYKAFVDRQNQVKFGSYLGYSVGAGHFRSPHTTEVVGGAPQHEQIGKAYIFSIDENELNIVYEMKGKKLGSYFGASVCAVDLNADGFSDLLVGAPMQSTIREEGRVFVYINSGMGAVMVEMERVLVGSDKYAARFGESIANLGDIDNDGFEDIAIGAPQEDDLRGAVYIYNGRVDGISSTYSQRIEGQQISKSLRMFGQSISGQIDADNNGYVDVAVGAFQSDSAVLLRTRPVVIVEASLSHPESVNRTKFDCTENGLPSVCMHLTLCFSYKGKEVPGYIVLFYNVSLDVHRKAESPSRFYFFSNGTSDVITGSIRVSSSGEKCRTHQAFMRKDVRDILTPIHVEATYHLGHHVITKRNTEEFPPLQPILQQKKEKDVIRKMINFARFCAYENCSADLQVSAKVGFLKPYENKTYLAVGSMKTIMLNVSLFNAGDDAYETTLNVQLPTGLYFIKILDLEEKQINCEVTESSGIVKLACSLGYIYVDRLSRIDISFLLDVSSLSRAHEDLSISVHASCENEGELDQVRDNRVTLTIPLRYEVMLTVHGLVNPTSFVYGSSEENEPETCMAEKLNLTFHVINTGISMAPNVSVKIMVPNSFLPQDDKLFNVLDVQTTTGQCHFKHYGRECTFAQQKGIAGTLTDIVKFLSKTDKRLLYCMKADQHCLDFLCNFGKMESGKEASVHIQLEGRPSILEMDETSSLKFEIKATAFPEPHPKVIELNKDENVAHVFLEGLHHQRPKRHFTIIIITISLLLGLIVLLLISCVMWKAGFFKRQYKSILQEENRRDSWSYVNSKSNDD
T2 sequence (P26011 whole entry): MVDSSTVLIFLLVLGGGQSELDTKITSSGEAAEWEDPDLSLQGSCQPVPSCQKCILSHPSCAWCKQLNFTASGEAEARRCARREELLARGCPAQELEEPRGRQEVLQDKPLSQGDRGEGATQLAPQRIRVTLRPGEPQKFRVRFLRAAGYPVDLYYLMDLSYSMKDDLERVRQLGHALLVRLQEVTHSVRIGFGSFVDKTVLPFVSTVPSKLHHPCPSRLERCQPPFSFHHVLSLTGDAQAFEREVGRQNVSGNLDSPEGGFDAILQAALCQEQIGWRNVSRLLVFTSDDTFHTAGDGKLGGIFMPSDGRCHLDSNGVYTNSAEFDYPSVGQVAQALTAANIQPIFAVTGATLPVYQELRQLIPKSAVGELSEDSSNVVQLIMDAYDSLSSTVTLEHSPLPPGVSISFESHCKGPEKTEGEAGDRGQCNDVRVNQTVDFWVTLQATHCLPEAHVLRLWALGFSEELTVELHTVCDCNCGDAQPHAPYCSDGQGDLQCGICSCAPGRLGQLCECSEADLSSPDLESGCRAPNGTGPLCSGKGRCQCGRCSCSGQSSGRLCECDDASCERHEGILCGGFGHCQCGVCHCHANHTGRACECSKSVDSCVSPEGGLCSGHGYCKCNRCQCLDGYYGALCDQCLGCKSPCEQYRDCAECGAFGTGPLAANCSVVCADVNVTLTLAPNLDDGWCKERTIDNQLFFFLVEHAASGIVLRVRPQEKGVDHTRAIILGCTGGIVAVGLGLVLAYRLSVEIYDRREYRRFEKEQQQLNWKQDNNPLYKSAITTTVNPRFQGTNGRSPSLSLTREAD

SMILES | inhibition [1] | inhibition [2] | pIC50 [3]
N=C(N)NCCC[C@H](NC(=O)CCCC[C@@H]1SC[C@@H]2NC(=O)N[C@@H]21)C(=O)N[C@@H](CCCNC(=N)N)C(=O)N[C@@H](CCCNC(=N)N)C(=O)N[C@@H](CCCNC(=N)N)C(=O)N[C@@H](CCCNC(=N)N)C(=O)N[C@@H](CCCNC(=N)N)C(=O)N[C@@H](CCCNC(=N)N)C(=O)N[C@@H](CCCNC(=N)N)C(=O)N[C@@H](CCC(=O)O)C(=O)N[C@@H](CCCNC(=N)N)C(=O)N[C@@H](Cc1ccc(OCc2cn(CCP(=O)(O)O)nn2)cc1)C(=O)O (Biotin-RRRRRRRRERY(X8)-OH) | 65.4% | 60.3% | –
CC(=O)OC[C@@H]1O[C@H](n2cc(COc3ccc(C[C@H](NC(=O)[C@H](CCCNC(=N)N)NC(=O)[C@H](CCC(=O)O)NC(=O)[C@H](CCCNC(=N)N)NC(=O)[C@H](CCCNC(=N)N)NC(=O)[C@H](CCCNC(=N)N)NC(=O)[C@H](CCCNC(=N)N)NC(=O)[C@H](CCCNC(=N)N)NC(=O)[C@H](CCCNC(=N)N)NC(=O)[C@H](CCCNC(=N)N)NC(=O)[C@H](CCCNC(=N)N)NC(=O)CCCC[C@@H]4SC[C@@H]5NC(=O)N[C@@H]54)C(=O)O)cc3)nn2)[C@@H](OC(C)=O)[C@H](OC(C)=O)[C@@H]1OC(C)=O (Biotin-RRRRRRRRERY(X6)-OH) | 52.5% | 47.4% | –
CC(=O)N[C@H]1[C@H](OC(C)=O)[C@H](OC(C)=O)[C@H](COC(C)=O)O[C@@H]1n1cc(COc2ccc(C[C@H](NC(=O)[C@H](CCCNC(=N)N)NC(=O)[C@H](CCC(=O)O)NC(=O)[C@H](CCCNC(=N)N)NC(=O)[C@H](CCCNC(=N)N)NC(=O)[C@H](CCCNC(=N)N)NC(=O)[C@H](CCCNC(=N)N)NC(=O)[C@H](CCCNC(=N)N)NC(=O)[C@H](CCCNC(=N)N)NC(=O)[C@H](CCCNC(=N)N)NC(=O)[C@H](CCCNC(=N)N)NC(=O)CCCC[C@@H]3SC[C@@H]4NC(=O)N[C@@H]43)C(=O)O)cc2)nn1 (Biotin-RRRRRRRRERY(X3)-OH) | 46.5% | 40% | –
C#CCOc1ccc(C[C@H](NC(=O)[C@H](CCCNC(=N)N)NC(=O)[C@H](CCC(=O)O)NC(=O)[C@H](CCCNC(=N)N)NC(=O)[C@H](CCCNC(=N)N)NC(=O)[C@H](CCCNC(=N)N)NC(=O)[C@H](CCCNC(=N)N)NC(=O)[C@H](CCCNC(=N)N)NC(=O)[C@H](CCCNC(=N)N)NC(=O)[C@H](CCCNC(=N)N)NC(=O)[C@H](CCCNC(=N)N)NC(=O)CCCC[C@@H]2SC[C@@H]3NC(=O)N[C@@H]32)C(=O)O)cc1 (Biotin-RRRRRRRRERY(Propargyl)-OH) | 39.8% | 39.8% | –

The next lines start with the values.

inhibition [1] | inhibition [2] | pIC50 [3] | SMILES
62.7% | 60.2% | – | N=C(N)NCCC[C@H](NC(=O)CCCC[C@@H]1SC[C@@H]2NC(=O)N[C@@H]21)C(=O)N[C@@H](CCCNC(=N)N)C(=O)N[C@@H](CCCNC(=N)N)C(=O)N[C@@H](CCCNC(=N)N)C(=O)N[C@@H](CCCNC(=N)N)C(=O)N[C@@H](CCCNC(=N)N)C(=O)N[C@@H](CCCNC(=N)N)C(=O)N[C@@H](CCCNC(=N)N)C(=O)N[C@@H](CCC(=O)O)C(=O)N[C@@H](CCCNC(=N)N)C(=O)N[C@@H](Cc1ccc(OCc2cn([C@H]3O[C@@H](CO)[C@@H](O)[C@@H](O)[C@@H]3O)nn2)cc1)C(=O)O (Biotin-RRRRRRRRERY(X2)-OH)
34.9% | 56.1% | – | N=C(N)NCCC[C@H](NC(=O)CCCC[C@@H]1SC[C@@H]2NC(=O)N[C@@H]21)C(=O)N[C@@H](CCCNC(=N)N)C(=O)N[C@@H](CCCNC(=N)N)C(=O)N[C@@H](CCCNC(=N)N)C(=O)N[C@@H](CCCNC(=N)N)C(=O)N[C@@H](CCCNC(=N)N)C(=O)N[C@@H](CCCNC(=N)N)C(=O)N[C@@H](CCCNC(=N)N)C(=O)N[C@@H](CCC(=O)O)C(=O)N[C@@H](CCCNC(=N)N)C(=O)N[C@@H](Cc1ccc(OCc2cn(CC(=O)O)nn2)cc1)C(=O)O (Biotin-RRRRRRRRERY(X7)-OH)
105% | 104% | 4.30 | CC(=O)OC[C@@H]1OC(OC(C)=O)[C@@H](n2cc(COc3ccc(C[C@H](NC(=O)[C@H](CCCNC(=N)N)NC(=O)[C@H](CCC(=O)O)NC(=O)[C@H](CCCNC(=N)N)NC(=O)[C@H](CCCNC(=N)N)NC(=O)[C@H](CCCNC(=N)N)NC(=O)[C@H](CCCNC(=N)N)NC(=O)[C@H](CCCNC(=N)N)NC(=O)[C@H](CCCNC(=N)N)NC(=O)[C@H](CCCNC(=N)N)NC(=O)[C@H](CCCNC(=N)N)NC(=O)CCCC[C@@H]4SC[C@@H]5NC(=O)N[C@@H]54)C(=O)O)cc3)nn2)[C@H](OC(C)=O)[C@@H]1OC(C)=O (some centres not stated) (Biotin-RRRRRRRRERY(X1)-OH)
39.6% | 28% | – | CC(=O)N[C@H]1[C@H](O)[C@H](O)[C@H](CO)O[C@@H]1n1cc(COc2ccc(C[C@H](NC(=O)[C@H](CCCNC(=N)N)NC(=O)[C@H](CCC(=O)O)NC(=O)[C@H](CCCNC(=N)N)NC(=O)[C@H](CCCNC(=N)N)NC(=O)[C@H](CCCNC(=N)N)NC(=O)[C@H](CCCNC(=N)N)NC(=O)[C@H](CCCNC(=N)N)NC(=O)[C@H](CCCNC(=N)N)NC(=O)[C@H](CCCNC(=N)N)NC(=O)[C@H](CCCNC(=N)N)NC(=O)CCCC[C@@H]3SC[C@@H]4NC(=O)N[C@@H]43)C(=O)O)cc2)nn1 (Biotin-RRRRRRRRERY(X4)-OH)
111% | 114% | > 5.00 | N=C(N)NCCC[C@H](NC(=O)CCCC[C@@H]1SC[C@@H]2NC(=O)N[C@@H]21)C(=O)N[C@@H](CCCNC(=N)N)C(=O)N[C@@H](CCCNC(=N)N)C(=O)N[C@@H](CCCNC(=N)N)C(=O)N[C@@H](CCCNC(=N)N)C(=O)N[C@@H](CCCNC(=N)N)C(=O)N[C@@H](CCCNC(=N)N)C(=O)N[C@@H](CCCNC(=N)N)C(=O)N[C@@H](CCC(=O)O)C(=O)N[C@@H](CCCNC(=N)N)C(=O)N[C@@H](Cc1ccc(OCc2cn(C[C@H](NC(=O)OCC3c4ccccc4-c4ccccc43)C(=O)O)nn2)cc1)C(=O)O (Biotin-RRRRRRRRERY(X5)-OH)
42.4% | 41.5% | – | CC(=O)N[C@@H]1[C@H](OCCCn2cc(COc3ccc(C[C@H](NC(=O)[C@H](CCCNC(=N)N)NC(=O)[C@H](CCC(=O)O)NC(=O)[C@H](CCCNC(=N)N)NC(=O)[C@H](CCCNC(=N)N)NC(=O)[C@H](CCCNC(=N)N)NC(=O)[C@H](CCCNC(=N)N)NC(=O)[C@H](CCCNC(=N)N)NC(=O)[C@H](CCCNC(=N)N)NC(=O)[C@H](CCCNC(=N)N)NC(=O)[C@H](CCCNC(=N)N)NC(=O)CCCC[C@@H]4SC[C@@H]5NC(=O)N[C@@H]54)C(=O)O)cc3)nn2)O[C@@H](CO)[C@@H](O)[C@H]1O (Biotin-RRRRRRRRERY(X9)-OH)
